Patent publication US12433903B2 (priority 2021, dated 2025)

Columns and labels:
Assay type in all cases: in vitro ADME
[1] = test system: cryopreserved hepatocytes; assay: Hepatocyte stability and metabolite profiling, human; settings: human hepatocyte samples, 40 and 60 minute
Description: (§1) The objective of this study was to investigate the stability of the test compound, CBG, in human, rat, dog, mouse, monkey and minipig cryopreserved hepatocytes. Follow-on metabolite profiling was performed.
(§2) CBG was incubated up to 2 hr with cryopreserved hepatocytes. Cryopreserved hepatocytes in suspension were added to test compound in supplemented media following pre-incubation to initiate the reaction and the reactions were stopped by organic solvent at the appropriate time points. The termination plates were centrifuged and sample supernatants were analysed using Cyprotex generic LC MS/MS conditions to generate intrinsic clearance values for CBG. Two control compounds for each species were included in the assay and if the values for these compounds were not within the specified limits the results were rejected and the experiment repeated.
(§3) Following the hepatocyte stability assay the samples were 59 tilized for metabolite profiling using suitable high-resolution LC-MS/MS conditions. The 40 and 60 minute human samples, 20 and 120 minute rat samples, 10 and 20 minute dog and monkey samples, 20 and 60 minute mouse samples, and 40 and 120 minute minipig samples were compared against the 0 minute control sample to establish which and how many metabolites were formed. […]
(§4) The areas and percentages reported for the parent and metabolites were calculated using the XIC data. […]

[2] = test system: cryopreserved hepatocytes; assay: Hepatocyte stability and metabolite profiling, rat; settings: rat hepatocyte samples, 20 and 120 minute
Description: as §1, §2, §3, §4

[3] = test system: cryopreserved hepatocytes; assay: Hepatocyte stability and metabolite profiling, monkey; settings: monkey hepatocyte samples, 10 and 20 minute
Description: as §1, §2, §3, §4

[4] = test system: cryopreserved hepatocytes; assay: Hepatocyte stability and metabolite profiling, minipig; settings: minipig hepatocyte samples, 40 and 120 minute
Description: as §1, §2, §3, §4

rUGT1A9 = molecular target: T1, rUGT1A9 (Homo sapiens, UniProt O60656); assay: Inhibition of CBG glucuronidation by Compound 1, rUGT1A9; settings: for CBG detected (CBG loss) / CBG detected, Percent of control / CBG glucuronide formed / CBG glucuronide formed, Percent of control: 4 min
T1 sequence (O60656 26-530): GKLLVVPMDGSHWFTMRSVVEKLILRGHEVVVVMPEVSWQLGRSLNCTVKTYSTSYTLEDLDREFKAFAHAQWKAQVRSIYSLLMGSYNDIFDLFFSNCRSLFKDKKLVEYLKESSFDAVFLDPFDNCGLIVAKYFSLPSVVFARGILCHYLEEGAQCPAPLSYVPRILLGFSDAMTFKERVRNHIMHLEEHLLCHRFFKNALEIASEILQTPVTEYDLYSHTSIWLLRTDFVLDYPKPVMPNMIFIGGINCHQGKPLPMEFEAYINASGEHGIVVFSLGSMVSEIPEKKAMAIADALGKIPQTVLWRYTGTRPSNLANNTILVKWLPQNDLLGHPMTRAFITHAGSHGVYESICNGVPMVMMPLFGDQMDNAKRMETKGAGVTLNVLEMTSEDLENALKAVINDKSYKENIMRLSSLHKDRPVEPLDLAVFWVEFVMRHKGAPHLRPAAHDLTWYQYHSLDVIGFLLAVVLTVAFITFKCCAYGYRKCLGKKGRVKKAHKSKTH
Description: The purpose of this experiment was to determine if Compound 1 can inhibit the glucuronidation of CBG, as both are substrates for the two major isoforms responsible for CBG glucuronidation.
The ability of Compound 1 to inhibit the metabolism of CBG by UGT1A9 and UGT2B7 enzymes was investigated to ascertain the IC50 values for direct inhibition. The incubation conditions (substrate concentration, incubation time and protein concentration) were determined in Part 2 of the protocol such that CBG metabolism remains near initial rate conditions (e.g., 20-30% substrate loss).
Preliminary experiments were conducted in Part I of the protocol, first to establish the HPLC/MS/MS bioanalytical methods for CBG and CBG glucuronide. […] The second set of preliminary experiments (Part 2), as mentioned, were conducted to optimize the incubation conditions as described above. Incubations (at 37° C.) contained Tris-HCl buffer (100 mM, pH 7.7), MgCl2 (10 mM), EDTA (1 mM, pH 7.4) and UDP-glucuronic acid (UDPGA, 10 mM). CBG was added to each incubation in DMSO such that the final percent of DMSO was 1% v/v, or less. Reactions were terminated by the addition of an equal volume of stop reagent, acetonitrile containing an internal standard. The samples were centrifuged (e.g., 920 RCF for 10 minutes at 10° C.), and the supernatant fractions were analyzed by LC-MS/MS to determine the amount of CBG remaining and formation of one metabolite (CBG glucuronide).
To examine its ability to act as a direct inhibitor of the above listed enzymes, Compound 1 was be added to recombinant human UGT enzyme together with CBG. Reactions were initiated with UDPGA and were carried out in duplicate. For all assays, reactions were terminated by the addition of acetonitrile with or without 2% v/v formic acid, including the internal standard.
Authentic metabolite reference standards were used for quantitation of the probe substrate metabolites and as internal standards. Based on the information obtained in the Part 2 experiments, the following table summarizes the experiments performed, assessing the inhibitory effects of Compound 1 was conducted as follows:
The amounts of CBG present at the end of the incubation periods was determined. For inhibition to have occurred, the amounts of CBG present at the end of the incubation period needed to increase, and the amounts of glucuronide formed needed to decrease.

CCCCCc1cc(O)c(C/C=C(\C)CCC=C(C)C)c(O)c1 [CBG, cannabigerol]
metabolites observed (number) [1]: Seven | metabolites observed (number) [2]: eight | metabolites observed (number) [3]: four | metabolites observed (number) [4]: four

CCCCCc1cc(O)c(C/C=C(\C)CCC=C(C)C)c(OC)c1 [Compound 1, (E)-2-(3,7-dimethylocta-2,6-dien-1-yl)-3-methoxy-5-pentylphenol]
CBG detected (CBG loss) (rUGT1A9; 10 μM CBG + 0.01 μM Compound 1): 1250 pmol | CBG detected, Percent of control (rUGT1A9; 10 μM CBG + 0.01 μM Compound 1): 109 | CBG glucuronide formed (rUGT1A9; 10 μM CBG + 0.01 μM Compound 1): 350000 area ratio | CBG glucuronide formed, Percent of control (rUGT1A9; 10 μM CBG + 0.01 μM Compound 1): 94.4 | CBG detected (CBG loss) (rUGT1A9; 10 μM CBG + 0.03 μM Compound 1): 1250 pmol | CBG detected, Percent of control (rUGT1A9; 10 μM CBG + 0.03 μM Compound 1): 110 | CBG glucuronide formed (rUGT1A9; 10 μM CBG + 0.03 μM Compound 1): 360000 area ratio | CBG glucuronide formed, Percent of control (rUGT1A9; 10 μM CBG + 0.03 μM Compound 1): 97.1 | CBG detected (CBG loss) (rUGT1A9; 10 μM CBG + 0.1 μM Compound 1): 1280 pmol | CBG detected, Percent of control (rUGT1A9; 10 μM CBG + 0.1 μM Compound 1): 112 | CBG glucuronide formed, Percent of control (rUGT1A9; 10 μM CBG + 0.1 μM Compound 1): 92.0 | CBG detected (CBG loss) (rUGT1A9; 10 μM CBG + 0.3 μM Compound 1): 1300 pmol | CBG detected, Percent of control (rUGT1A9; 10 μM CBG + 0.3 μM Compound 1): 114 | CBG glucuronide formed (rUGT1A9; 10 μM CBG + 0.3 μM Compound 1): 350000 area ratio | CBG glucuronide formed, Percent of control (rUGT1A9; 10 μM CBG + 0.3 μM Compound 1): 94.4 | CBG detected (CBG loss) (rUGT1A9; 10 μM CBG + 1 μM Compound 1): 1210 pmol | CBG detected, Percent of control (rUGT1A9; 10 μM CBG + 1 μM Compound 1): 106 | CBG glucuronide formed, Percent of control (rUGT1A9; 10 μM CBG + 1 μM Compound 1): 92.6 | CBG detected (CBG loss) (rUGT1A9; 10 μM CBG + 3 μM Compound 1): 1200 pmol | CBG detected, Percent of control (rUGT1A9; 10 μM CBG + 3 μM Compound 1): 105 | CBG glucuronide formed, Percent of control (rUGT1A9; 10 μM CBG + 3 μM Compound 1): 93.6 | CBG detected (CBG loss) (rUGT1A9; 10 μM CBG + 10 μM Compound 1): 1140 pmol | CBG detected, Percent of control (rUGT1A9; 10 μM CBG + 10 μM Compound 1): 99.8 | CBG glucuronide formed, Percent of control (rUGT1A9; 10 μM CBG + 10 μM Compound 1): 92.8 | metabolism of CBG in the presence of Compound 1 (in words) (rUGT1A9; 0.01-10 μM Compound 1, CBG disappearance or glucuronide formation): essentially unchanged
